Results published in ChEMBL document CHEMBL1147864, “Synthesis of new sugar derivatives from Stachys sieboldi Miq and antibacterial evaluation against Mycobacterium tuberculosis, Mycobacterium avium, and Staphylococcus aureus” (2007).
Values after ≈ are worked out from the molar mass of the structure shown.

Columns and labels:
Type in all cases: functional
Settings in all cases: 336 h
[1] = tested on: Mycobacterium tuberculosis; experiment: Antibacterial activity against Mycobacterium tuberculosis H37Rv after 2 weeks by broth dilution method
[2] = tested on: Staphylococcus aureus; experiment: Antibacterial activity against Staphylococcus aureus after 2 weeks by broth dilution method
[3] = tested on: Mycobacterium avium; experiment: Antibacterial activity against Mycobacterium avium 724S after 2 weeks by broth dilution method
[4] = tested on: Staphylococcus aureus; experiment: Antibacterial activity against methicillin-resistant Staphylococcus aureus 873 after 2 weeks by broth dilution method
[5] = tested on: Staphylococcus aureus; experiment: Antibacterial activity against methicillin-resistant Staphylococcus aureus 906 after 2 weeks by broth dilution method
[6] = tested on: Staphylococcus aureus; experiment: Antibacterial activity against methicillin-resistant Staphylococcus aureus 908 after 2 weeks by broth dilution method
[7] = tested on: Staphylococcus aureus; experiment: Antibacterial activity against methicillin-resistant Staphylococcus aureus 910 after 2 weeks by broth dilution method
[8] = tested on: Mycobacterium tuberculosis; experiment: Antimycobacterial activity against Mycobacterium tuberculosis A-1-1 after 2 weeks by broth dilution method
[9] = tested on: Mycobacterium tuberculosis; experiment: Antimycobacterial activity against Mycobacterium tuberculosis A-1-2 after 2 weeks by broth dilution method
[10] = tested on: Mycobacterium tuberculosis; experiment: Antimycobacterial activity against Mycobacterium tuberculosis A-1-3 after 2 weeks by broth dilution method
[11] = tested on: Mycobacterium tuberculosis; experiment: Antimycobacterial activity against Mycobacterium tuberculosis A-2-5 after 2 weeks by broth dilution method
[12] = tested on: Mycobacterium tuberculosis; experiment: Antimycobacterial activity against Mycobacterium tuberculosis A-3-1 after 2 weeks by broth dilution method
[13] = tested on: Mycobacterium tuberculosis; experiment: Antimycobacterial activity against Mycobacterium tuberculosis A-3-2 after 2 weeks by broth dilution method
[14] = tested on: Mycobacterium tuberculosis; experiment: Antimycobacterial activity against Mycobacterium tuberculosis A-3-5 after 2 weeks by broth dilution method
[15] = tested on: Mycobacterium tuberculosis; experiment: Antimycobacterial activity against Mycobacterium tuberculosis A-3-6 after 2 weeks by broth dilution method
[16] = tested on: Mycobacterium tuberculosis; experiment: Antimycobacterial activity against Mycobacterium tuberculosis A-3-9 after 2 weeks by broth dilution method
[17] = tested on: Mycobacterium tuberculosis; experiment: Antimycobacterial activity against Mycobacterium tuberculosis A-3-11 after 2 weeks by broth dilution method
[18] = tested on: Mycobacterium tuberculosis; experiment: Antimycobacterial activity against Mycobacterium tuberculosis A-3-12 after 2 weeks by broth dilution method
[19] = tested on: Mycobacterium tuberculosis; experiment: Antimycobacterial activity against Mycobacterium tuberculosis A-3-15 after 2 weeks by broth dilution method
[20] = tested on: Mycobacterium tuberculosis; experiment: Antimycobacterial activity against Mycobacterium tuberculosis A-3-16 after 2 weeks by broth dilution method
[21] = tested on: Mycobacterium tuberculosis; experiment: Antimycobacterial activity against Mycobacterium tuberculosis A-3-17 after 2 weeks by broth dilution method
[22] = tested on: Mycobacterium tuberculosis; experiment: Antimycobacterial activity against Mycobacterium tuberculosis A-3-19 after 2 weeks by broth dilution method
[23] = tested on: Mycobacterium tuberculosis; experiment: Antimycobacterial activity against Mycobacterium tuberculosis A-3-20 after 2 weeks by broth dilution method
[24] = tested on: Mycobacterium tuberculosis; experiment: Antimycobacterial activity against Mycobacterium tuberculosis A-3-21 after 2 weeks by broth dilution method
[25] = tested on: Mycobacterium tuberculosis; experiment: Antimycobacterial activity against Mycobacterium tuberculosis A-3-22 after 2 weeks by broth dilution method

With `OC[C@H](O)[C@@H](O)[C@H](O)[C@H](O)CO[C@H]1O[C@H](CO[C@H]2O[C@H](CO)[C@H](O)[C@H](O)[C@H]2O)[C@H](O)[C@H](O)[C@H]1O` the MIC [1] was > 800 µg/mL and the MIC [2] was > 800 µg/mL.
With `CCCCO[C@@H]1O[C@H](CO[C@H]2O[C@H](CO[C@H]3O[C@H](COC(C)=O)[C@H](OC(C)=O)[C@H](OC(C)=O)[C@H]3OC(C)=O)[C@H](OC(C)=O)[C@H](OC(C)=O)[C@H]2OC(C)=O)[C@@H](OC(C)=O)[C@H](OC(C)=O)[C@H]1OC(C)=O` the MIC [1] was > 800 µg/mL and the MIC [2] was > 800 µg/mL.
With `C=CCO[C@@H]1O[C@H](CO[C@H]2O[C@H](CO[C@H]3O[C@H](COC(C)=O)[C@H](OC(C)=O)[C@H](OC(C)=O)[C@H]3OC(C)=O)[C@H](OC(C)=O)[C@H](OC(C)=O)[C@H]2OC(C)=O)[C@@H](OC(C)=O)[C@H](OC(C)=O)[C@H]1OC(C)=O` the MIC [1] was 3.13 µg/mL (≈ 3.24 µM), the MIC [3] was 3.13 µg/mL (≈ 3.24 µM) and the MIC [2] was 3.13 µg/mL (≈ 3.24 µM). For the same molecule, the MIC [4] was 3.77 µg/mL (≈ 3.91 µM), the MIC [5] was 15.1 µg/mL (≈ 15.6 µM) and the MIC ([6]; read-out: MIC) was 7.54 µg/mL (≈ 7.81 µM). For the same molecule, the MIC [7] was 15.1 µg/mL (≈ 15.6 µM), the MIC [8] was 6.25 µg/mL (≈ 6.48 µM) and the MIC [9] was 6.25 µg/mL (≈ 6.48 µM). The MIC [10] was 6.25 µg/mL (≈ 6.48 µM), the MIC [11] was 12.5 µg/mL (≈ 13 µM) and the MIC [12] was 25 µg/mL (≈ 25.9 µM). The MIC [13] was 25 µg/mL (≈ 25.9 µM), the MIC [14] was 6.25 µg/mL (≈ 6.48 µM) and the MIC [15] was 6.25 µg/mL (≈ 6.48 µM). The MIC [16] was 3.13 µg/mL (≈ 3.24 µM), the MIC [17] was 3.13 µg/mL (≈ 3.24 µM) and the MIC [18] was 6.25 µg/mL (≈ 6.48 µM). The MIC [19] was 3.13 µg/mL (≈ 3.24 µM), the MIC [20] was 6.25 µg/mL (≈ 6.48 µM) and the MIC [21] was 3.13 µg/mL (≈ 3.24 µM). For the same molecule, the MIC [22] was 3.13 µg/mL (≈ 3.24 µM), the MIC [23] was 6.25 µg/mL (≈ 6.48 µM) and the MIC [24] was 6.25 µg/mL (≈ 6.48 µM). The MIC [25] was 3.13 µg/mL (≈ 3.24 µM).
`CO[C@@H]1O[C@H](CO[C@H]2O[C@H](CO[C@H]3O[C@H](COC(C)=O)[C@H](OC(C)=O)[C@H](OC(C)=O)[C@H]3OC(C)=O)[C@H](OC(C)=O)[C@H](OC(C)=O)[C@H]2OC(C)=O)[C@@H](OC(C)=O)[C@H](OC(C)=O)[C@H]1OC(C)=O` was tested, and the MIC [1] was > 800 µg/mL and the MIC [2] was > 800 µg/mL.
`C#CCO[C@@H]1O[C@H](CO[C@H]2O[C@H](CO[C@H]3O[C@H](COC(C)=O)[C@H](OC(C)=O)[C@H](OC(C)=O)[C@H]3OC(C)=O)[C@H](OC(C)=O)[C@H](OC(C)=O)[C@H]2OC(C)=O)[C@@H](OC(C)=O)[C@H](OC(C)=O)[C@H]1OC(C)=O` was tested, and the MIC [1] was > 800 µg/mL and the MIC [2] was > 800 µg/mL.
`C/C=C/CO[C@@H]1O[C@H](CO[C@H]2O[C@H](CO[C@H]3O[C@H](COC(C)=O)[C@H](OC(C)=O)[C@H](OC(C)=O)[C@H]3OC(C)=O)[C@H](OC(C)=O)[C@H](OC(C)=O)[C@H]2OC(C)=O)[C@@H](OC(C)=O)[C@H](OC(C)=O)[C@H]1OC(C)=O` was tested, and the MIC [1] was > 400 µg/mL and the MIC [2] was > 400 µg/mL.
`C=CCO[C@H]1O[C@H](CO[C@H]2O[C@H](CO[C@H]3O[C@H](COC(C)=O)[C@H](OC(C)=O)[C@H](OC(C)=O)[C@H]3OC(C)=O)[C@H](OC(C)=O)[C@H](OC(C)=O)[C@H]2OC(C)=O)[C@@H](OC(C)=O)[C@H](OC(C)=O)[C@H]1OC(C)=O` was tested, and the MIC [1] was > 800 µg/mL and the MIC [2] was > 800 µg/mL.
For `CCO[C@@H]1O[C@H](CO[C@H]2O[C@H](CO[C@H]3O[C@H](COC(C)=O)[C@H](OC(C)=O)[C@H](OC(C)=O)[C@H]3OC(C)=O)[C@H](OC(C)=O)[C@H](OC(C)=O)[C@H]2OC(C)=O)[C@@H](OC(C)=O)[C@H](OC(C)=O)[C@H]1OC(C)=O`, the MIC [1] was > 800 µg/mL and the MIC [2] was > 800 µg/mL.
In the case of `CCCO[C@@H]1O[C@H](CO[C@H]2O[C@H](CO[C@H]3O[C@H](COC(C)=O)[C@H](OC(C)=O)[C@H](OC(C)=O)[C@H]3OC(C)=O)[C@H](OC(C)=O)[C@H](OC(C)=O)[C@H]2OC(C)=O)[C@@H](OC(C)=O)[C@H](OC(C)=O)[C@H]1OC(C)=O`, the MIC [1] is reported as > 800 µg/mL and the MIC [2] is reported as > 800 µg/mL.
For `CC(=O)OC[C@H]1O[C@H](OC[C@H]2O[C@H](OC[C@H]3O[C@@H](OC(C)C)[C@H](OC(C)=O)[C@@H](OC(C)=O)[C@@H]3OC(C)=O)[C@H](OC(C)=O)[C@@H](OC(C)=O)[C@H]2OC(C)=O)[C@H](OC(C)=O)[C@@H](OC(C)=O)[C@H]1OC(C)=O`, the MIC [1] was > 800 µg/mL and the MIC [2] was > 800 µg/mL.
In the case of `C=CCO[C@@H]1O[C@H](CO[C@H]2O[C@H](CO[C@H]3O[C@H](CO)[C@H](O)[C@H](O)[C@H]3O)[C@H](O)[C@H](O)[C@H]2O)[C@@H](O)[C@H](O)[C@H]1O`, the MIC [1] is reported as > 100 µg/mL, the MIC [3] is reported as > 100 µg/mL and the MIC [2] is reported as > 100 µg/mL. For the same molecule, the MIC [4] was 100 µg/mL (≈ 184 µM), the MIC [5] was > 100 µg/mL and the MIC ([6]; read-out: MIC) was > 100 µg/mL. For the same molecule, the MIC [7] was > 100 µg/mL.
With `CC(=O)OC[C@H](OC(C)=O)[C@@H](OC(C)=O)[C@H](OC(C)=O)[C@@H](CO[C@H]1O[C@H](CO[C@H]2O[C@H](COC(C)=O)[C@H](OC(C)=O)[C@H](OC(C)=O)[C@H]2OC(C)=O)[C@H](OC(C)=O)[C@H](OC(C)=O)[C@H]1OC(C)=O)OC(C)=O` the MIC [1] was > 800 µg/mL and the MIC [2] was > 800 µg/mL.
In the case of `CN[C@@H]1[C@H](O[C@H]2[C@H](O[C@H]3[C@H](O)[C@@H](O)[C@H](N=C(N)N)[C@@H](O)[C@@H]3N=C(N)N)O[C@@H](C)[C@]2(O)C=O)O[C@@H](CO)[C@H](O)[C@H]1O` (stereo in doubt) [STREPTOMYCIN], the MIC [1] is reported as 0.2 µg/mL (≈ 0.344 µM), the MIC [3] is reported as 0.4 µg/mL (≈ 0.688 µM) and the MIC [2] is reported as 100 µg/mL (≈ 172 µM). The MIC [4] was > 100 µg/mL and the MIC [5] was 100 µg/mL (≈ 172 µM).
For `C=CCO` [ALLYL ALCOHOL], the MIC [1] was > 400 µg/mL and the MIC [2] was > 400 µg/mL.
For `C=CCN=C=S` [ALLYL ISOTHIOCYANATE], the MIC [1] was > 800 µg/mL and the MIC [2] was > 800 µg/mL.
For `CC[C@@H](CO)NCCN[C@@H](CC)CO` [ETHAMBUTOL], the MIC [1] was 1.25 µg/mL (≈ 6.12 µM), the MIC [3] was 3 µg/mL (≈ 14.7 µM) and the MIC [2] was > 100 µg/mL. For the same molecule, the MIC [4] was > 100 µg/mL, the MIC [5] was > 100 µg/mL and the MIC ([6]; read-out: MIC) was > 100 µg/mL. For the same molecule, the MIC [7] was > 100 µg/mL.
With `NNC(=O)c1ccncc1` [ISONIAZID] the MIC [1] was 0.075 µg/mL (≈ 0.547 µM), the MIC [3] was 12.5 µg/mL (≈ 91.1 µM) and the MIC [2] was > 100 µg/mL. For the same molecule, the MIC [4] was > 100 µg/mL, the MIC ([6]; read-out: MIC) was > 100 µg/mL and the MIC [7] was > 100 µg/mL.
`CO[C@H]1/C=C/O[C@@]2(C)Oc3c(C)c(O)c4c(O)c(c(/C=N/N5CCN(C)CC5)c(O)c4c3C2=O)NC(=O)/C(C)=C\C=C\[C@H](C)[C@H](O)[C@@H](C)[C@@H](O)[C@@H](C)[C@H](OC(C)=O)[C@@H]1C` [RIFAMPIN] was tested, and the MIC [1] was > 0.008 µg/mL, the MIC [3] was 0.004 µg/mL (≈ 0.00486 µM) and the MIC [2] was 0.004 µg/mL (≈ 0.00486 µM). For the same molecule, the MIC [4] was 0.004 µg/mL (≈ 0.00486 µM), the MIC [5] was 0.004 µg/mL (≈ 0.00486 µM) and the MIC [6] was 0.004 µg/mL (≈ 0.00486 µM). The MIC [7] was 0.004 µg/mL (≈ 0.00486 µM).
